Assay results from patent publication US8604044B2, “Quinazoline based EGFR inhibitors containing a zinc binding moiety” (Curis, Inc., priority 2006, dated 2013).

Target: T1, HER2 (Homo sapiens, UniProt P04626)
T1 construct: human HER2 amino acids 679-1255; host or cells: baculovirus in Sf9 insect cells
Experiment: Radioisotope assay for HER2
Type: biochemical
Conditions: read-out: HER2/ErB2 IC50 grading
Protocol: Protocol for Radioisotope Assay for HER2
10 nM HER2 and 0.1 mg/ml polyEY were placed in the reaction buffer and 2 mM MnCl2, 1 μM ATP and 1% DMSO final were added. The reaction mixture was incubated for 2 hours at room temperature.
MW=91.6 kDa. […] Enzyme is in 25 mM Tris-HCl, pH 8.0, 100 mM NaCl, 0.05% Tween-20, 50% glycerol, 10 mM reduced glutathione, and 3 mM DTT.

T1 sequence (P04626 679-1255): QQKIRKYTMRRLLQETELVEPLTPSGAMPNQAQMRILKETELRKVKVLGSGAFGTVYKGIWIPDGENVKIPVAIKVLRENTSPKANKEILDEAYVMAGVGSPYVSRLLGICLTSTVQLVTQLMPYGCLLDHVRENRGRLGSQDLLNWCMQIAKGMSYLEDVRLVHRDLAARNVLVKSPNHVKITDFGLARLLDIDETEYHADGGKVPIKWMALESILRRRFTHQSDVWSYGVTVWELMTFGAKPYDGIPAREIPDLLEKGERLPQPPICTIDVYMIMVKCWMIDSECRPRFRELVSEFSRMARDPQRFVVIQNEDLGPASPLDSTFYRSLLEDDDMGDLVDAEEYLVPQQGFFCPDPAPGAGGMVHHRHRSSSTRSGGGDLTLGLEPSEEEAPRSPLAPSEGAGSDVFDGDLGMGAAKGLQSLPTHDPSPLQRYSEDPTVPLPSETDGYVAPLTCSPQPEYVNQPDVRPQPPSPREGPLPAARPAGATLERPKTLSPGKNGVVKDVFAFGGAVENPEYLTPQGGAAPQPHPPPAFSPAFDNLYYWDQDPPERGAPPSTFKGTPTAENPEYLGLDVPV

IC50 | Structure (SMILES)
< 100 nM | COCCOc1cc2ncnc(Nc3ccc(F)c(Cl)c3)c2cc1NC(=O)CCCCCCC(=O)NO [Compound 70, N^1-(4-(3-chloro-4-fluorophenylamino)-7-(2-methoxyethoxy)quinazolin-6-yl)-N^8-hydroxyoctanediamide]

Test system: HDAC
Experiment: HDAC fluorimetric assay (HDAC enzymatic activity, HeLa nuclear extract)
Type: biochemical
Conditions: HeLa nuclear extract; read-out: HDAC IC50 grading
Protocol: HDAC inhibitors were screened using an HDAC fluorimetric assay kit (AK-500, Biomol, Plymouth Meeting, Pa.).
Each assay was setup as follows: Defrosted all kit components and kept on ice until use. […] Prepared dilutions of Trichostatin A (TSA, positive control) and tested compounds in assay buffer (5× of final concentration). Diluted Fluor de Lys™ Substrate in assay buffer to 100 uM (50 fold=2× final). Diluted Fluor de Lys™ developer concentrate 20-fold (e.g. 50 μl plus 950 μl Assay Buffer) in cold assay buffer. Second, diluted the 0.2 mM Trichostatin A 100-fold in the 1× Developer (e.g. 10 μl in 1 ml; final Trichostatin A concentration in the 1× Developer=2 μM; final concentration after addition to HDAC/Substrate reaction=1 μM). Added Assay buffer, diluted trichostatin A or test inhibitor to appropriate wells of the microtiter plate. Added diluted HeLa extract or other HDAC sample to all wells except for negative controls.

IC50 | Structure (SMILES)
> 10000 nM | COc1cc2ncnc(Nc3ccc(F)c(Cl)c3)c2cc1OCC(=O)NO [Compound 1, 2-(4-(3-Chloro-4-fluorophenylamino)-7-methoxyquinazolin-6-yloxy)-N-hydroxyacetamide]
> 10000 nM | COc1cc2ncnc(Nc3ccc(F)c(Cl)c3)c2cc1OCCC(=O)NO [Compound 2]
> 10000 nM | COc1cc2ncnc(Nc3ccc(F)c(Cl)c3)c2cc1OCCCC(=O)NO [Compound 3, 4-(4-(3-Chloro-4-fluorophenylamino)-7-methoxyquinazolin-6-yloxy)-N-hydroxybutanamide]
100 to 1000 nM | COc1cc2ncnc(Nc3ccc(F)c(Cl)c3)c2cc1OCCCCC(=O)NO [Compound 4]
< 100 nM | COc1cc2ncnc(Nc3ccc(F)c(Cl)c3)c2cc1OCCCCCC(=O)NO [Compound 5]
> 10000 nM | C#Cc1cccc(Nc2ncnc3cc(OC)c(OCCC(=O)NO)cc23)c1 [Compound 8]
100 to 1000 nM | C#Cc1cccc(Nc2ncnc3cc(OC)c(OCCCC(=O)NO)cc23)c1 [Compound 9, 4-(4-(3-ethynylphenylamino)-7-methoxyquinazolin-6-yloxy)-N-hydroxybutanamide]
100 to 1000 nM | C#Cc1cccc(Nc2ncnc3cc(OC)c(OCCCCC(=O)NO)cc23)c1 [Compound 10, 5-(4-(3-Ethynylphenylamino)-7-methoxyquinazolin-6-yloxy)-N-hydroxypentanamide]
> 10000 nM | O=C(COc1ccc2ncnc(Nc3ccc(F)c(Cl)c3)c2c1)NO [Compound 13, 2-(4-(3-chloro-4-fluorophenylamino)quinazolin-6-yloxy)-N-hydroxyacetamide]
1000 to 10000 nM | O=C(CCOc1ccc2ncnc(Nc3ccc(F)c(Cl)c3)c2c1)NO [Compound 14]
< 100 nM | O=C(CCCCCOc1ccc2ncnc(Nc3ccc(F)c(Cl)c3)c2c1)NO [Compound 17, 6-(4-(3-Chloro-4-fluorophenylamino)quinazolin-6-yloxy)-N-hydroxyhexanamide]
< 100 nM | C#Cc1cccc(Nc2ncnc3ccc(OCCCCC(=O)NO)cc23)c1 [Compound 22]
< 100 nM | C#Cc1cccc(Nc2ncnc3ccc(OCCCCCCC(=O)NO)cc23)c1 [Compound 24, 7-(4-(3-ethynylphenylamino)quinazolin-6-yloxy)-N-hydroxyheptanamide]
< 100 nM | C#Cc1cccc(Nc2ncnc3cc(OCCOC)c(OCCCCCCC(=O)NO)cc23)c1 [Compound 36, 7-(4-(3-Ethynylphenylamino)-7-(2-methoxyethoxy)quinazolin-6-yloxy)-N-hydroxyheptanamide]
1000 to 10000 nM | COc1cc2ncnc(Nc3ccc(F)c(Cl)c3)c2cc1NC(=O)CCCC(=O)NO [Compound 38, N^1-(4-(3-chloro-4-fluorophenylamino)-7-methoxyquinazolin-6-yl)-N^5-hydroxyglutaramide]
100 to 1000 nM | C#Cc1cccc(Nc2ncnc3cc(OC)c(NC(=O)CCCC(=O)NO)cc23)c1 [Compound 42, N^1-(4-(3-ethynylphenylamino)-7-methoxyquinazolin-6-yl)-N^5-hydroxyglutaramide]
100 to 1000 nM | C#Cc1cccc(Nc2ncnc3cc(OC)c(NC(=O)CCCCC(=O)NO)cc23)c1 [Compound 43, N^1-(4-(3-ethynylphenylamino)-7-methoxyquinazolin-6-yl)-N^6-hydroxyadipamide]
> 10000 nM | Nc1cc(Br)ccc1NC(=O)COc1ccc2ncnc(Nc3ccc(F)c(Cl)c3)c2c1 [Compound 45]
100 to 1000 nM | C[C@@H](Nc1ncnc2ccc(OCCCCCC(=O)NO)cc12)c1ccccc1 [Compound 50]
100 to 1000 nM | O=C(/C=C/c1ccc(OCCOc2ccc3ncnc(Nc4ccc(F)c(Cl)c4)c3c2)cc1)NO [Compound 63]
100 to 1000 nM | COc1cc2ncnc(Nc3ccc(F)c(Cl)c3)c2cc1OCCOc1ccc(/C=C/C(=O)NO)cc1 [Compound 66, (E)-3-(4-(2-(4-(3-chloro-4-fluorophenylamino)-7-methoxyquinazolin-6-yloxy)ethoxy)phenyl)-N-hydroxyacrylamide]
1000 to 10000 nM | COCCOc1cc2ncnc(Nc3ccc(F)c(Cl)c3)c2cc1NC(=O)CCCC(=O)NO [Compound 68, N^1-(4-(3-chloro-4-fluorophenylamino)-7-(2-methoxyethoxy)quinazolin-6-yl)-N^5-hydroxyglutaramide]
100 to 1000 nM | COCCOc1cc2ncnc(Nc3ccc(F)c(Cl)c3)c2cc1NC(=O)CCCCC(=O)NO [Compound 69, N^1-(4-(3-chloro-4-fluorophenylamino)-7-(2-methoxyethoxy)quinazolin-6-yl)-N^6-hydroxyadipamide]

IC50 | Structure (SMILES)
< 100 nM | COc1cc2ncnc(N[C@H](C)c3ccccc3)c2cc1OCCCCCC(=O)NO [Compound 77, (R)—N-hydroxy-6-(7-methoxy-4-(1-phenylethylamino)quinazolin-6-yloxy)-hexanamide]
< 100 nM | C[C@@H](Nc1ncnc2ccc(OCCCCCC(=O)NO)cc12)c1ccccc1 [Compound 78, (R)—N-hydroxy-6-(4-(1-phenylethylamino)-quinazolin-6-yloxy)hexanamide]
< 100 nM | COc1cc2ncnc(N[C@@H](C)c3ccccc3)c2cc1OCCCCCCC(=O)NO [Compound 80, (S)—N-hydroxy-7-(7-methoxy-4-(1-phenylethylamino)quinazolin-6-yloxy)heptanamide]
100 to 1000 nM | COc1cc2ncnc(N[C@H](C)c3ccc(Cl)cc3)c2cc1OCCCCCCC(=O)NO [Compound 82, (R)-7-(4-(1-(4-chlorophenyl)ethylamino)-7-methoxyquinazolin-6-yloxy)-N-hydroxyheptanamide]
< 100 nM | COc1ccc([C@@H](C)Nc2ncnc3cc(OC)c(OCCCCCCC(=O)NO)cc23)cc1 [Compound 83, (R)—N-hydroxy-7-(7-methoxy-4-(1-(4-methoxyphenyl)ethylamino)quinazolin-6-yloxy)-heptanamide]
< 100 nM | COc1cc2ncnc(NCCc3ccccc3)c2cc1OCCCCCCC(=O)NO [Compound 84]
< 100 nM | COc1cc2ncnc(NCc3ccc(F)cc3)c2cc1OCCCCCCC(=O)NO [Compound 86, 7-(4-(4-fluorobenzylamino)-7-methoxyquinazolin-6-yloxy)-N-hydroxyheptanamide]
< 100 nM | COc1cc2ncnc(NCc3ccc(F)c(F)c3)c2cc1OCCCCCCC(=O)NO [Compound 87, 7-(4-(3,4-difluorobenzylamino)-7-methoxyquinazolin-6-yloxy)-N-hydroxyheptanamide]
< 100 nM | COc1cc2ncnc(NCc3cccc(Br)c3)c2cc1OCCCCCCC(=O)NO [Compound 89, 7-(4-(3-bromobenzylamino)-7-methoxyquinazolin-6-yloxy)-N-hydroxyheptanamide]
< 100 nM | C#Cc1cccc(CNc2ncnc3cc(OC)c(OCCCCCCC(=O)NO)cc23)c1 [Compound 90, 7-(4-(3-ethynylbenzylamino)-7-methoxyquinazolin-6-yloxy)-N-hydroxyheptanamide]
1000 to 10000 nM | COc1cc2ncnc(Nc3ccc(F)c(Cl)c3)c2cc1OCCOc1ccc(CC(=O)NO)cc1 [Compound 91]
1000 to 10000 nM | COc1cc2ncnc(Nc3ccc(F)c(Cl)c3)c2cc1NC(=O)Nc1ccc(C(=O)NO)cc1 [Compound 93]
> 10000 nM | COc1cc2ncnc(Nc3ccc(F)c(Cl)c3)c2cc1OCCCCCCC(=O)N(C)O [Compound 94]
> 10000 nM | COc1cc2ncnc(Nc3ccc(F)c(Cl)c3)c2cc1OCCCCCCN(O)C(C)=O [Compound 103, N-(6-(4-(3-chloro-4-fluorophenylamino)-7-methoxyquinazolin-6-yloxy)hexyl)-N-hydroxyacetamide]
100 to 1000 nM | COc1cc2ncnc(Nc3ccc(F)c(Cl)c3)c2cc1OCCNCc1ccc(C(=O)NO)cc1 [Compound 107]
1000 to 10000 nM | COc1cc2ncnc(Nc3ccc(F)c(Cl)c3)c2cc1OCCN(CCO)CCCC(=O)NO [Compound 118]
> 10000 nM | COc1cc2ncnc(Nc3ccc(F)c(Cl)c3)c2cc1OCCNCc1ccc(C#CC(=O)NO)cc1 [Compound 121]
> 10000 nM | COc1cc2ncnc(Nc3ccc(F)c(Cl)c3)c2cc1-c1ccc(C#CCCC(=O)NO)o1 [Compound 124]
100 to 1000 nM | COc1cc2ncnc(Nc3ccc(F)c(Cl)c3)c2cc1-c1ccc(C#CCCCC(=O)NO)o1 [Compound 125]
1000 to 10000 nM | COc1cc2ncnc(Nc3ccc(F)c(Cl)c3)c2cc1C#CCCC(=O)NO [Compound 138]
1000 to 10000 nM | COc1cc2ncnc(Nc3ccc(F)c(Cl)c3)c2cc1C#CCCCC(=O)NO [Compound 139, 6-(4-(3-chloro-4-fluorophenylamino)-7-methoxyquinazolin-6-yl)-N-hydroxyhex-5-ynamide]
100 to 1000 nM | COc1cc2ncnc(Nc3ccc(F)c(Cl)c3)c2cc1CCCCC(=O)NO [Compound 144, 5-(4-(3-chloro-4-fluorophenylamino)-7-methoxyquinazolin-6-yl)-N-hydroxypentanamide]
1000 to 10000 nM | COc1cc2ncnc(Nc3ccc(F)c(Cl)c3)c2cc1Oc1ccc(C#CCCCC(=O)NO)cc1 [Compound 205]
